Measured values reported in patent publication US12495798B2, “Nicotinamide compound and herbicidal composition comprising compound” (KOREA RESEARCH INSTITUTE OF CHEMICAL TECHNOLOGY, priority 2019, dated 2025).

What was measured:
Type in all cases: in vivo
[1] = system: sorghum; experiment: Herbicidal activity test against upland field weeds (foliar treatment test); set-up: key to Foliar treatment herbicidal activity, Sorghum: 0 (no control); 100 (complete control); conditions: 50 g ai/ha, scale 0-100; for plant injury at 50 g/ha: Sorghum
Method in brief: (§1)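 Greenhouse-grown plants (30±5 °C, 14/10 h light/dark) foliar hand-sprayed with compound in 50% acetone, 0.1% Tween-20 at 50 or 75 g a.i./ha. Control visually scored 0 (none) to 100 (complete) versus untreated after 14 days, or 21 days if needed.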

[2] = system: barnyard grass; experiment: as above; set-up: key to Foliar treatment herbicidal activity, barnyard grass: 0 (no control); 100 (complete control); conditions: 50 g ai/ha, scale 0-100; for pest or weed control at 50 g/ha: Echinochloa crus-galli
Method in brief: as §1

[3] = system: quack grass; experiment: as above; set-up: key to Foliar treatment herbicidal activity, quack grass: 0 (no control); 100 (complete control); conditions: 50 g ai/ha, scale 0-100
Method in brief: as §1

[4] = system: crabgrass; experiment: as above; set-up: key to Foliar treatment herbicidal activity, Crabgrass: 0 (no control); 100 (complete control); conditions: 50 g ai/ha, scale 0-100; for pest or weed control at 50 g/ha: Digitaria sanguinalis
Method in brief: as §1

[5] = system: fall panicum; experiment: as above; set-up: key to Foliar treatment herbicidal activity, Fall panicum: 0 (no control); 100 (complete control); conditions: 50 g ai/ha, scale 0-100; for pest or weed control at 50 g/ha: Panicum dichotomiflorum
Method in brief: as §1

[6] = system: black nightshade; experiment: as above; set-up: key to Foliar treatment herbicidal activity, black nightshade: 0 (no control); 100 (complete control); conditions: 50 g ai/ha, scale 0-100; for pest or weed control at 50 g/ha: Solanum nigrum
Method in brief: as §1

[7] = system: indian jointvetch; experiment: as above; set-up: key to Foliar treatment herbicidal activity, Indian jointvetch: 0 (no control); 100 (complete control); conditions: 50 g ai/ha, scale 0-100
Method in brief: as §1

[8] = system: velvetleaf; experiment: as above; set-up: key to Foliar treatment herbicidal activity, velvet leaf: 0 (no control); 100 (complete control); conditions: 50 g ai/ha; for Foliar treatment herbicidal activity, velvet leaf: scale 0-100; for pest or weed control at 50 g/ha: Abutilon theophrasti, scale 0-100, read-out: Foliar treatment herbicidal activity, velvet leaf
Method in brief: as §1

[9] = system: cocklebur; experiment: as above; set-up: key to Foliar treatment herbicidal activity, Cocklebur: 0 (no control); 100 (complete control); conditions: 50 g ai/ha, scale 0-100; for pest or weed control at 50 g/ha: Xanthium strumarium
Method in brief: as §1

[10] = system: bindweed; experiment: as above; set-up: key to Foliar treatment herbicidal activity, Bindweed: 0 (no control); 100 (complete control); conditions: 50 g ai/ha, scale 0-100
Method in brief: as §1

[11] = system: sorghum; experiment: Herbicidal activity test against upland field weeds (soil treatment test); set-up: key to Soil treatment herbicidal activity, Sorghum: 0 (no control); 100 (complete control); conditions: 50 g ai/ha, scale 0 (no control) to 100 (complete control)
Method: (§2) Experimental Example 2: Herbicidal Activity Test Against Upland Field Weeds (Soil Treatment Test) Soil treatment was performed as follows: After filling a square plastic pot having a surface area of 350 cm^2 with sandy loam mixed with 1 g per pot (350 cm^2) of horticultural mixed fertilizer (N:P:K=11:10:11), seeds (10˜15 grains) or rootstocks (2 pieces) of 5 kinds of grassy weeds of sorghum, barnyard grass, quack grass, crabgrass, fall panicum, and 5 kinds of broadleaf weeds of black nightshade, indian jointvetch, velvetleaf, cocklebur, bindweed, which had been stored in a low temperature (6° C.), were sown. The day after sowing, test compound solutions were made by diluting with a preparation solution (including 50% acetone, 0.1% Tween-20) so that the final treatment amount of the test compounds was 50 or 75 g a.i./ha. The prepared test compound solution was used for treating soil surface by hand-spraying 14 mL per pot in a fume hood. After the treatment, it was managed under the same greenhouse conditions (average temperature 30±5° C., light/dark=14/10 hours), and after 14 days (after 21 days if necessary), the external symptoms and efficacy were investigated according to the scale of 0 (no control) to 100 (complete control). The results of Table 8 were obtained by evaluating weed control value to the untreated control by conducting visual assessment.

[12] = system: barnyard grass; experiment: as above; set-up: key to Soil treatment herbicidal activity, barnyard grass: 0 (no control); 100 (complete control); conditions: 50 g ai/ha, scale 0 (no control) to 100 (complete control)
Method: as §2

[13] = system: quack grass; experiment: as above; set-up: key to Soil treatment herbicidal activity, quack grass: 0 (no control); 100 (complete control); conditions: 50 g ai/ha, scale 0 (no control) to 100 (complete control)
Method: as §2

[14] = system: crabgrass; experiment: as above; set-up: key to Soil treatment herbicidal activity, Crabgrass: 0 (no control); 100 (complete control); conditions: 50 g ai/ha, scale 0 (no control) to 100 (complete control); for pest or weed control at 50 g/ha: Digitaria sanguinalis
Method: as §2

[15] = system: fall panicum; experiment: as above; set-up: key to Soil treatment herbicidal activity, Fall panicum: 0 (no control); 100 (complete control); conditions: 50 g ai/ha, scale 0 (no control) to 100 (complete control)
Method: as §2

[16] = system: black nightshade; experiment: as above; set-up: key to Soil treatment herbicidal activity, black nightshade: 0 (no control); 100 (complete control); conditions: 50 g ai/ha, scale 0 (no control) to 100 (complete control)
Method: as §2

[17] = system: indian jointvetch; experiment: as above; set-up: key to Soil treatment herbicidal activity, Indian jointvetch: 0 (no control); 100 (complete control); conditions: 50 g ai/ha, scale 0 (no control) to 100 (complete control)
Method: as §2

[18] = system: velvetleaf; experiment: as above; set-up: key to Soil treatment herbicidal activity, velvet leaf: 0 (no control); 100 (complete control); conditions: 50 g ai/ha, scale 0 (no control) to 100 (complete control)
Method: as §2

[19] = system: bindweed; experiment: as above; set-up: key to Soil treatment herbicidal activity, Bindweed: 0 (no control); 100 (complete control); conditions: 50 g ai/ha, scale 0 (no control) to 100 (complete control)
Method: as §2

SMILES | Foliar treatment herbicidal activity, Sorghum [1] | Foliar treatment herbicidal activity, barnyard grass [2] | Foliar treatment herbicidal activity, quack grass [3] | Foliar treatment herbicidal activity, Crabgrass [4] | Foliar treatment herbicidal activity, Fall panicum [5] | Foliar treatment herbicidal activity, Indian jointvetch [7] | Foliar treatment herbicidal activity, velvet leaf [8] | Foliar treatment herbicidal activity, Cocklebur [9] | Foliar treatment herbicidal activity, Bindweed [10] | Soil treatment herbicidal activity, Sorghum [11] | Soil treatment herbicidal activity, barnyard grass [12] | Soil treatment herbicidal activity, quack grass [13] | Soil treatment herbicidal activity, Crabgrass [14] | Soil treatment herbicidal activity, Fall panicum [15] | Soil treatment herbicidal activity, black nightshade [16] | Soil treatment herbicidal activity, Indian jointvetch [17] | Soil treatment herbicidal activity, velvet leaf [18] | Soil treatment herbicidal activity, Bindweed [19] | plant injury at 50 g/ha [1] [%] | pest or weed control at 50 g/ha [5] [%] | also measured
CC(OC(=O)OC1CCCCC1)N(C(=O)c1ccc(C(F)(F)F)nc1COCc1nnn(C)n1)c1nnnn1C (stereo not drawn) [Compound No. 4-11, cyclohexyl(1-(N-(1-methyl-1H-tetrazol-5-yl)-2-(((2-methyl-2H-tetrazol-5-yl)methoxy)methyl)-6-(trifluoromethyl)nicotinamido)ethyl)carbonate] | 60 | 98 | 0 | 98 | 95 | 98 | 100 | 98 | 100 | 0 | 100 | 0 | 100 | 60 | 100 | 40 | 100 | 0 |  |  | Foliar treatment herbicidal activity, black nightshade [6]: 100
CC(C)OC(=O)OC(C)N(C(=O)c1ccc(C(F)(F)F)nc1COCc1nnn(C)n1)c1nnnn1C (stereo not drawn) [Compound No. 4-12, isopropyl(1-(N-(1-methyl-1H-tetrazol-5-yl)-2-(((2-methyl-2H-tetrazol-5-yl)methoxy)methyl)-6-(trifluoromethyl)nicotinamido)ethyl)carbonate] | 70 | 100 | 0 | 95 | 98 | 98 | 100 | 98 | 100 | 20 | 100 | 0 | 100 | 90 | 100 | 40 | 100 | 98 |  |  | Foliar treatment herbicidal activity, black nightshade [6]: 100
Cn1cnc(COc2nc(C(F)(F)F)ccc2C(=O)Nc2nnnn2C)n1 [Compound No. 2-43, 2-((1-methyl-1H-1,2,4-triazol-3-yl)methoxy)-N-(1-methyl-1H-tetrazol-5-yl)-6-(trifluoromethyl)nicotinamide] |  |  | 0 |  |  |  |  |  |  | 0 | 0 | 0 | 0 | 0 |  |  |  | 0 | 20 | 50 | pest or weed control at 50 g/ha [2]: 60%; pest or weed control at 50 g/ha [4]: 30%; pest or weed control at 50 g/ha [6]: 95%; pest or weed control at 50 g/ha [7]: 20%; pest or weed control at 50 g/ha [8]: 40%; pest or weed control at 50 g/ha [9]: 20%; pest or weed control at 50 g/ha [10]: 30%; pest or weed control at 50 g/ha [17]: 20%; pest or weed control at 50 g/ha ([18]; Abutilon theophrasti, read-out: Soil treatment herbicidal activity, velvet leaf): 30%
CN(Cc1nnnn1C)c1nc(C(F)(F)F)ccc1C(=O)Nc1nnnn1C [Compound No. 1-27, 2-(methyl((1-methyl-1H-tetrazol-5-yl)methyl)amino)-N-(1-methyl-1H-tetrazol-5-yl)-6-(trifluoromethyl)nicotinamide] |  | 100 |  | 100 |  | 100 | 100 | 100 | 100 | 100 | 100 |  | 100 | 100 | 100 | 100 | 100 |  | 80 | 80 | pest or weed control at 50 g/ha [3]: 30%; pest or weed control at 50 g/ha [13]: 20%; pest or weed control at 50 g/ha [19]: 80%
CN(C(=O)c1ccc(C(F)(F)F)nc1OCc1nnnn1C(F)F)c1nnnn1C [Compound No. 1-8, 2-((1-(difluoromethyl)-1H-tetrazol-5-yl)methoxy)-N-methyl-N-(1-methyl-1H-tetrazol-5-yl)-6-(trifluoromethyl)nicotinamide] | 0 | 0 |  | 0 | 0 |  |  |  |  | 0 | 0 | 0 |  | 0 | 0 | 100 | 100 |  |  |  | pest or weed control at 50 g/ha [6]: 98%; pest or weed control at 50 g/ha [7]: 70%; pest or weed control at 50 g/ha [8]: 20%; pest or weed control at 50 g/ha [9]: 20%; pest or weed control at 50 g/ha [10]: 40%; pest or weed control at 50 g/ha [14]: 30%; pest or weed control at 50 g/ha [19]: 50%
Cn1cnc(COCc2nc(C(F)(F)C(F)(F)F)ccc2C(=O)Nc2nnnn2C)n1 [Compound No. 2-83, 2-(((1-methyl-1H-1,2,4-triazol-3-yl)methoxy)methyl)-N-(1-methyl-1H-tetrazol-5-yl)-6-(perfluoroethyl)nicotinamide] |  |  | 0 |  |  |  |  |  |  | 0 | 0 | 0 |  |  | 100 |  | 100 |  | 20 | 70 | pest or weed control at 50 g/ha [2]: 90%; pest or weed control at 50 g/ha [4]: 70%; pest or weed control at 50 g/ha [6]: 98%; pest or weed control at 50 g/ha [7]: 70%; pest or weed control at 50 g/ha [8]: 70%; pest or weed control at 50 g/ha [9]: 60%; pest or weed control at 50 g/ha [10]: 40%; pest or weed control at 50 g/ha [14]: 70%; pest or weed control at 50 g/ha ([15]; Panicum dichotomiflorum): 60%; pest or weed control at 50 g/ha [17]: 80%; pest or weed control at 50 g/ha [19]: 40%
